A short description of data set [1]: Electrochemical activity: polarographic reduction on mercury dripping electrode. It is filed as physicochemical. To be noted: for half-wave potential more positive at reverse stroke compared to forward stroke: polarograms of reverse stroke; for number of electrons participating in the reduction reaction: calculated with Geirovsky-Ilkovich equation; for i: 2.0% sodium chloride background, 9·10^−4 M; for i / −E1/2: 37° C., forward trace, average for the group of compounds; for −E1/2: vs SCE. On the procedure:
The study was carried out on a general-purpose polarograph PU-1 with a two-coordinate recorder of the “LKD” type using a three-electrode thermostatically controlled polarographic cell and mercury dripping electrode (MDE) with forced separation of the drop and a dropping period of 0.5 second. A platinum wire was used as an auxiliary electrode and a saturated calomel electrode (SCE) was used as a control electrode.
2.0% solutions of sodium chloride having pH 7.0, 7.2, 7.4, 7.6 were used as a background; the pH values of the background solution were corrected by a solution of sodium hydroxide. The polarographic cell was filled with 5.0 ml of the background solution and for 5 minutes was purged with nitrogen for removing the dissolved oxygen. Then 0.5 ml of solution of the studied substance was added to the background solution, and the polarogram was recorded as a polarographic wave. The concentration of the compounds in the polarographic cell was 9·10^−4 M.
The pH was measured on the pH-meter with an accuracy of +0.05 pH units. The polarographic measurements were carried out at a temperature of 37° C. The recording of polarograms of the investigated materials was effected under conditions of DC current at a scanning rate of the potential 10.0 mV/s with a active scanning stroke from a potential 0 to −0.5 V and sweep retrace from a −0.5 V to 0. The electric-current sensitivity was 5.0 mkA. The scale by the coordinate of the potentials was 50.0 mV/cm. The values of potentials of the half-wave E1/2 of the investigated materials are given with respect to the SCE potential.
The polarogram parameters such as a limiting current ilim and E1/2 were determined by the graphic method. The number of electrons participating in the reaction was calculated on the basis of the analysis of the polarographic wave using the Geirovsky-Ilkovich equation.
The calculation of the number of electrons participating in the reduction reaction was effected using the Geirovsky-Ilkovich equation: […]

Data set [2] can be described thus: Chronic toxicity of suppositories: indexes of peripheral blood. To be noted: male rats, suppositories rectally; for Basophiles / Juveniles: 1 month/2 months (one value given), control 0. Set-up: Thrombocytes: unit not given here. Format: in vivo, rats.

Regarding `O=c1[nH][nH]c(=O)c2nccnc12.[Na]` [Compound 26, sodium salt of pyrazine[2,3-d]-6H-pyridazine-5,8-dione], the “half-wave potential more positive at reverse stroke compared to forward stroke” value in data set [1] is listed as 27.0 mV.

On to `O=c1[nH]n([C@@H]2O[C@H](CO)[C@@H](O)[C@H]2O)c(=O)c2ncccc12.[Na]` [Compound 1, sodium salt of 7-(β-O-ribofuranosile)pyrido[2,3-1]-6H-pyridazine-5,8-dione sodium salt], for which, in data set [1], the “number of electrons participating in the reduction reaction” value (“number … in the reduction reaction” for short) was 3.72. The i in data set [1] (pH 7.0) is recorded as 0.26 ± 0.04 mkA; in data set [1] (pH 7.2) it was 0.31 ± 0.02 mkA; in data set [1] (pH 7.4), 0.27 ± 0.03 mkA; in data set [1] (pH 7.6) it was 0.30 ± 0.01 mkA. The “−E1/2” value is given as 0.11 ± 0.02 V in data set [1] (pH 7.0), 0.11 ± 0.03 V in data set [1] (pH 7.2), 0.105 ± 0.01 V in data set [1] (pH 7.4) and 0.105 ± 0.02 V in data set [1] (pH 7.6). Moreover, in data set [1], the “half-wave potential more positive at reverse stroke compared to forward stroke” value is listed as 25.0 mV.

For “potassium salt of 3-bromine-pyrazine[2,3-Cl]-6H-pyridazine-5,8-dione [Compound 27]”, the “number … in the reduction reaction” value in data set [1] is 3.72. In addition, the i in data set [1] (pH 7.0) amounted to 0.32 ± 0.03 mkA; in data set [1] (pH 7.2), 0.33 ± 0.04 mkA; in data set [1] (pH 7.4), 0.34 ± 0.03 mkA; in data set [1] (pH 7.6), 0.34 ± 0.02 mkA. The “−E1/2” value in data set [1] (pH 7.0) came out at 0.16 ± 0.02 V; in data set [1] (pH 7.2), 0.19 ± 0.02 V; in data set [1] (pH 7.4), 0.175 ± 0.01 V; in data set [1] (pH 7.6), 0.16 ± 0.015 V. Further, the “half-wave potential more positive at reverse stroke compared to forward stroke” value in data set [1] amounted to 20.0 mV.

For the compound `O=c1[nH]n([C@@H]2O[C@H](CO)[C@@H](O)[C@H]2O)c(=O)c2ncnc(O)c12.[Na]` [Compound 33, sodium salt of 4-hydroxy-7-(β-D-ribofuranosile)pyrimido[4,5-d]-6H-pyridazine-5,8-dione], in data set [1], the “number … in the reduction reaction” value is 3.5. The i in data set [1] (pH 7.0) stood at 0.30 ± 0.05 mkA; in data set [1] (pH 7.2) it was 0.26 ± 0.02 mkA; in data set [1] (pH 7.4), 0.30 ± 0.03 mkA; in data set [1] (pH 7.6), 0.30 ± 0.02 mkA. Further, the “−E1/2” value in data set [1] (pH 7.0) is on record as 0.08 ± 0.02 V; in data set [1] (pH 7.2), 0.085 ± 0.015 V; in data set [1] (pH 7.4) it was 0.085 ± 0.02 V; in data set [1] (pH 7.6), 0.09 ± 0.02 V. Also, the “half-wave potential more positive at reverse stroke compared to forward stroke” value in data set [1] is reported as 27.0 mV.

Regarding `O=C([O-])c1ncnc2c(=O)n([C@@H]3O[C@H](CO)[C@@H](O)[C@H]3O)[nH]c(=O)c12.[Na+]` [Compound 34, sodium salt of 4-carboxy-7-(β-D-ribofuranosile)pyrimido[4,5-D]-6H-pyridazine-5,8-dione], the Basophiles in data set [2] (50 mg/kg) and in data set [2] (500 mg/kg) was 0% throughout. Also, the Juveniles in data set [2] (50 mg/kg) and in data set [2] (500 mg/kg) was 0% in each case. In addition, the Stab neutrophil was 1.0 ± 0.4% in data set [2] (50 mg/kg, 1 month, control 0.8 ± 0.4); 1.8 ± 0.5% in data set [2] (50 mg/kg, 2 months, control 2.4 ± 0.4); 0.9 ± 0.2% in data set [2] (500 mg/kg, 1 month, control 0.8 ± 0.4); 1.4 ± 0.3% in data set [2] (500 mg/kg, 2 months, control 2.4 ± 0.4). Moreover, the REE was found to be 1.8 ± 0.5 mm/h in data set [2] (50 mg/kg, 1 month, control 2.2 ± 0.4); 1.7 ± 0.3 mm/h in data set [2] (50 mg/kg, 2 months, control 1.4 ± 0.2); 2.0 ± 0.4 mm/h in data set [2] (500 mg/kg, 1 month, control 2.2 ± 0.4); 1.8 ± 0.2 mm/h in data set [2] (500 mg/kg, 2 months, control 1.4 ± 0.2). The Reticulocytes in data set [2] (50 mg/kg, 1 month, control 2.8%0.3) is given as 2.7 ± 0.1%; in data set [2] (50 mg/kg, 2 months, control 2.9 ± 0.2), 2.9 ± 0.2%; in data set [2] (500 mg/kg, 1 month, control 2.8%0.3), 3.2 ± 0.2%; in data set [2] (500 mg/kg, 2 months, control 2.9 ± 0.2), 3.5 ± 0.3%. The Eosinophiles in data set [2] (50 mg/kg, 1 month, control 4.0 + 0.3) is reported as 3.5 ± 1.0%; in data set [2] (50 mg/kg, 2 months, control 4.4 + 1.2), 4.1 ± 0.4%; in data set [2] (500 mg/kg, 1 month, control 4.0 + 0.3), 3.0 ± 0.9%; in data set [2] (500 mg/kg, 2 months, control 4.4 + 1.2), 3.9 ± 1.4%. The Erythrocytes in data set [2] (50 mg/kg, 1 month, control 5.6 ± 0.1) came out at 5.6 ± 0.1 mln/mm^3; in data set [2] (50 mg/kg, 2 months, control 6.1 ± 0.1) it was 6.1 ± 0.2 mln/mm^3; in data set [2] (500 mg/kg, 1 month, control 5.6 ± 0.1), 5.6 ± 0.2 mln/mm^3; in data set [2] (500 mg/kg, 2 months, control 6.1 ± 0.1), 6.6 ± 0.1 mln/mm^3. For the same compound, the Hemoglobin turned out to be 10.6 ± 0.1 mmol/L in data set [2] (50 mg/kg, 1 month, control 10.5 ± 0.2); 11.1 ± 0.2 mmol/L in data set [2] (50 mg/kg, 2 months, control 11.4 ± 0.2); 10.6 ± 0.3 mmol/L in data set [2] (500 mg/kg, 1 month, control 10.5 ± 0.2); 12.4 ± 0.4 mmol/L in data set [2] (500 mg/kg, 2 months, control 11.4 ± 0.2). The Leukocyte in data set [2] (50 mg/kg, 1 month, control 17.4 ± 1.3) is 15.9 ± 1.3 thousand/mm^3; in data set [2] (50 mg/kg, 2 months, control 19.1 ± 1.9), 17.8 ± 1.4 thousand/mm^3; in data set [2] (500 mg/kg, 1 month, control 17.4 ± 1.3) it was 16.9 ± 1.0 thousand/mm^3; in data set [2] (500 mg/kg, 2 months, control 19.1 ± 1.9), 22.1 ± 1.1 thousand/mm^3. For the same compound, the Haematocrite came out at 46.9 ± 1.1% in data set [2] (50 mg/kg, 1 month, control 45.9 ± 1.7); 47.5 ± 1.2% in data set [2] (50 mg/kg, 2 months, control 45.9 ± 1.8); 48.1 ± 1.5% in data set [2] (500 mg/kg, 1 month, control 45.9 ± 1.7); 53.1 ± 1.6% in data set [2] (500 mg/kg, 2 months, control 45.9 ± 1.8). Moreover, the “Average volume of erythrocytes” value is given as 81.6 ± 1.9 Mkm^3 in data set [2] (50 mg/kg, 1 month, control 81.4 ± 1.7); 76.7 ± 1.9 Mkm^3 in data set [2] (50 mg/kg, 2 months, control 74.6 + 1.9); 84.1 ± 1.3 Mkm^3 in data set [2] (500 mg/kg, 1 month, control 81.4 ± 1.7); 83.8 ± 1.5 Mkm^3 in data set [2] (500 mg/kg, 2 months, control 74.6 + 1.9). The “Coagulation, time” value in data set [2] (50 mg/kg, 1 month, control 152 ± 10.2) is 148 ± 16 s; in data set [2] (50 mg/kg, 2 months, control 316 ± 8), 321 ± 10 s; in data set [2] (500 mg/kg, 2 months, control 316 ± 8) it was 312 ± 9 s. The Thrombocytes in data set [2] (50 mg/kg, 1 month, control 707 ± 23) amounted to 670 ± 23; in data set [2] (50 mg/kg, 2 months, control 593 ± 14), 610 ± 15; in data set [2] (500 mg/kg, 1 month, control 707 ± 23) it was 682 ± 24; in data set [2] (500 mg/kg, 2 months, control 593 ± 14) it was 631 ± 26.

(Values after patent US8592421B2, “Cyclic bioisosters of purine system derivatives and a pharmaceutical composition based thereon” (priority 2003, dated 2013).)
